The structures appear in SMILES notation.

The data set can be described thus: gradient 5% acetonitrile 3 min, to 50% in 2 min, to 85% in 15 min, held 3 min, 100 µL/min. The note with it: column: Zorbax Extend-C18 2.1 x 50 mm; eluents: water / acetonitrile, 0.1% formic acid. The method in brief: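 Retention times of pure standards were taken from adduct peaks that were selected by computer and manually inspected. Over 3 months, mixtures of ~100 molecules were run by HPLC–quadrupole time-of-flight mass spectrometry in positive and negative ionization mode. The Zorbax Extend-C18 column (2.1 × 50 mm, 1.8 μm) ran at 100 μL/min in water and acetonitrile, each containing 0.1% formic acid, with 40 μL dead volume and 900 μL dwell volume.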
`CSc1cccc(NC(=O)Cn2c(Nc3cc(C)cc(C)c3)nc(C)cc2=O)c1` displayed an RP-LC retention time of 909 s.
Then `O=C(CSc1c(-c2ccccc2)[nH]c2ccccc12)NCC1CCCO1` (centres undefined), with 753 s; and `Cc1ccc(N2CCC(NC(=O)C3CCCCC3)C2=O)cc1` (centres undefined), with 520 s.
Then `O=C(c1cccc(Cl)c1)N1CCN(c2cnn3c(C4CC4)nnc3c2)CC1`, with 593 s; and `Cc1noc(-c2ccc(OC3CN(C(=O)C(C)c4ccccc4)C3)cc2)n1` (centres undefined), with 934 s.
Then `Cc1ccccc1NC(=O)C1CCc2nc(N3CCCCC3)ncc2C1` (centres undefined), with 688 s; and `COCC(=O)N[C@@H]1CN(C(=O)C2CC=CC2)CC[C@@H]1CO`, with 578 s; and `Cc1cc(N2CCOCC2)nc(N2CCN(C(=O)c3cccc(Br)c3)CC2)n1`, with 636 s.
As for `CCCn1c(=O)sc2cc(S(=O)(=O)N3CCC(C(=O)NC(C)(C)CC)CC3)ccc21`, the RP-LC retention time was 979 s.
With `CN1[C@@H]2CC[C@H]1CC(OC(=O)C(CO)c1ccccc1)C2` (some centres undefined) the figure was 613 s; with `CCN1C(=O)COc2ccc(-c3noc(/C=C/c4ccccc4)n3)cc21`, 1170 s.
Compound `CCOC(=O)c1c(C)[nH]c(C(=O)N2CCCC(C(=O)NCc3ccc(OC(C)C)cc3)C2)c1C` (centres undefined) registered an RP-LC retention time of 930 s.
With `CC12NC(Cc3ccccc31)c1ccccc12` (centres undefined) the figure was 670 s.
With `COc1cc(C)c(S(=O)(=O)Nc2ccc(-c3cn4ccc(C)nc4n3)cc2)cc1C` the figure was 683 s.
`CCNc1cc(N2CCC(CCC(=O)NCc3ccc(F)cc3)CC2)ncn1` registered an RP-LC retention time of 574 s.
With `O=[N+]([O-])c1cccnc1Oc1cc(Cl)c(Cl)cc1Cl` the figure was 1220 s; with `Cc1cccc(CNC(=O)C2(C)Cn3cnc(C(=O)NCc4ccc(F)cc4)c3C(=O)N2C2CC2)c1` (centres undefined), 798 s.
`CCOc1ccccc1C(=O)n1nc(C)c(S(=O)(=O)N2CCCCC2)c1C` yielded an RP-LC retention time of 1160 s.
`O=C(c1cccc2[nH]ccc12)N1CCN(c2cc(-c3cccs3)[nH]n2)CC1` had an RP-LC retention time of 832 s.
With `COC(=O)c1cccc(NC(=O)C2CC(=O)N(c3ccc4c(c3)CCN4C(C)=O)C2)c1` (centres undefined) the figure was 687 s.
The compound `CCOc1ccc(C(=O)Nc2cc(-c3cn4cccnc4n3)ccc2OC)cc1` showed an RP-LC retention time of 723 s.
`CCNC(=O)c1cn(-c2ccc(-c3nc(C(C)(C)C)no3)cn2)cn1` registered an RP-LC retention time of 858 s.
With `COc1ccc(-c2nc3ccc(C4=NNC(=O)CC4C)cc3[nH]2)cc1` (centres undefined) the figure was 654 s; with `COCCNC(=O)C1CCN(c2nccnc2Sc2cccc(C)c2)CC1`, 826 s.
Then `O=C(CCc1nc(-c2ccc(N3CCCC3)cc2)no1)NCCC1=CCCCC1`, with 1170 s; and `CCn1cc(CCN2CCN(S(=O)(=O)c3ccc(C#N)cc3)CC2)c2cccnc21`, with 634 s; and `O=C(Nc1ccc([N+](=O)[O-])cc1Cl)c1cc(Cl)ccc1O`, with 1130 s.
Then `Cc1cc(C)cc(Oc2nccn3c(=O)n(CC(=O)Nc4ccccc4)nc23)c1`, with 922 s; and `CCN1CCN(S(=O)(=O)c2cc(-c3nnc(C4CC4)o3)co2)CC1`, with 587 s; and `CCCN(CC1CCOC1)C(=O)Nc1cccc(C)c1C` (centres undefined), with 818 s.
Consider `CC(C)C(=O)N1CCOc2ccc(N(C)C)cc2C1`, for which the RP-LC retention time worked out at 575 s.
With `COc1cc(-c2nc3ncccn3c2NC2CCCCCC2)cc(OC)c1OC` the figure was 790 s; with `Clc1cc(Cl)cc(-c2ccc(CNCc3ccncc3)o2)c1`, 649 s; with `Cc1cc(OCC(=O)NCc2ccc3c(c2)OCO3)nc(-c2ccc(F)cc2)n1`, 942 s.
